Measured values from patent US9777004B2, “Amino-substituted imidazopyridazines” (Bayer Intellectual Property GmbH, priority 2012, dated 2017).

Key:
human full-length MKNK1 [1] = target: T1, human full-length MKNK1 (Homo sapiens (Human), UniProt Q9BUB5, T344D); experiment: MKNK1 kinase assay (TR-FRET); assay type: biochemical; conditions: 10 μM ATP, 15 min preincubation
Protocol: MKNK1-inhibitory activity of compounds of the present invention was quantified employing the MKNK1 TR-FRET assay as described in the following paragraphs.
As substrate for the kinase reaction the biotinylated peptide biotin-Ahx-[…] (C-terminus in amide form) was used which can be purchased e.g. form the company Biosyntan (Berlin-Buch, Germany).
(§1) For the assay 50 nL of a 100fold concentrated solution of the test compound in DMSO was pipetted into a black low volume 384well microtiter plate (Greiner Bio-One, Frickenhausen, Germany), 2 μL of a solution of MKNK1 in aqueous assay buffer [50 mM HEPES pH 7.5, 5 mM magnesium chloride, 1.0 mM dithiothreitol, 0.005% (v/v) Nonidet-P40 (Sigma)] was added and the mixture was incubated for 15 min at 22° C. to allow pre-binding of the test compounds to the enzyme before the start of the kinase reaction. Then the kinase reaction was started by the addition of 3 μL of a solution of adenosine-tri-phosphate (ATP, 16.7 μM=>final conc. in the 5 μL assay volume is 10 μM) and substrate (0.1 μM=>final conc. in the 5 μL assay volume is 0.06 μM) in assay buffer and the resulting mixture was incubated for a reaction time of 45 min at 22° C. The concentration of MKNK1 was adjusted depending of the activity of the enzyme lot and was chosen appropriate to have the assay in the linear range, typical concentrations were in the range of 0.05 μg/mL. The reaction was stopped by the addition of 5 μL of a solution of TR-FRET detection reagents (5 nM streptavidine-XL665 [Cisbio Bioassays, Codolet, France] and 1 nM anti-ribosomal protein S6 (pSer236)-antibody from Invitrogen [#44921G] and 1 nM LANCE EU-W1024 labeled ProteinG [Perkin-Elmer, product no. AD0071]) in an aqueous EDTA-solution (100 mM EDTA, 0.1% (w/v) bovine serum albumin in 50 mM HEPES pH 7.5).
(§2) The resulting mixture was incubated for 1 h at 22° C. to allow the formation of complex between the phosphorylated biotinylated peptide and the detection reagents. Subsequently the amount of phosphorylated substrate was evaluated by measurement of the resonance energy transfer from the Eu-chelate to the streptavidine-XL. Therefore, the fluorescence emissions at 620 nm and 665 nm after excitation at 350 nm were measured in a TR-FRET reader, e.g. a Rubystar (BMG Labtechnologies, Offenburg, Germany) or a Viewlux (Perkin-Elmer). The ratio of the emissions at 665 nm and at 622 nm was taken as the measure for the amount of phosphorylated substrate.

human full-length MKNK1 [2] = target: T1, human full-length MKNK1; experiment: MKNK1 kinase high ATP assay (TR-FRET); assay type: biochemical; conditions: 2 mM ATP, 15 min preincubation
Protocol: MKNK1 Kinase High ATP Assay
MKNK1-inhibitory activity at high ATP of compounds of the present invention after their preincubation with MKNK1 was quantified employing the TR-FRET-based MKNK1 high ATP assay as described in the following paragraphs.
As substrate for the kinase reaction the biotinylated peptide biotin-Ahx-[…] (C-terminus in amide form) was used, which can be purchased e.g. from the company Biosyntan (Berlin-Buch, Germany).
as §1, with “3.3 mM=>final” for “16.7 μM=>final”, “2 mM)” for “10 μM)”, “30” for “45”, “0.003” for “0.05”
as §2

T1 sequence (Q9BUB5 other isoform, or with tags, fused parts or gaps T344D): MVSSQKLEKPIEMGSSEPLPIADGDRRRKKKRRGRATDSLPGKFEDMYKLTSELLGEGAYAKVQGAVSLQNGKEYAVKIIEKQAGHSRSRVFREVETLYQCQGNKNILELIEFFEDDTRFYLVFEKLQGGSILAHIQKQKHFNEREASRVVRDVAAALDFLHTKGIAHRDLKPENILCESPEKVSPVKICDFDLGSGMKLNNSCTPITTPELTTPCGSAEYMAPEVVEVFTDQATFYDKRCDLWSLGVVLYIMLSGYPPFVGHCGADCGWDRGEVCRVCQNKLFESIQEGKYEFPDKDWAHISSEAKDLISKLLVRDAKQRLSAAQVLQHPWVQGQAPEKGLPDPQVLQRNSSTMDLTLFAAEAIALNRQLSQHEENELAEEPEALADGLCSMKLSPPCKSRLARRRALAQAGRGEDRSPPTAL

Compound | IC50 (human full-length MKNK1 [1]) [nM] | IC50 (human full-length MKNK1 [2]) [nM]
CC(C)(C)CNCCCOc1ccc2ncc(-c3cc4ccccc4o3)n2n1 [Example 4, N-(3-{[3-(1-Benzofuran-2-yl)imidazo[1,2-b]pyridazin-6-yl]oxy}propyl)-2,2-dimethylpropan-1-amine] | 4 | 13
c1ccc2oc(-c3cnc4ccc(OCCNCC5CC5)nn34)cc2c1 [Example 6, 2-{[3-(1-Benzofuran-2-yl)imidazo[1,2-b]pyridazin-6-yl]oxy}-N-(cyclopropylmethyl)ethanamine] | 7 | 18
CC(C)(C)CNCCOc1ccc2ncc(-c3cc4ccccc4o3)n2n1 [Example 12, N-(2-{[3-(1-Benzofuran-2-yl)imidazo[1,2-b]pyridazin-6-yl]oxy}ethyl)-2,2-dimethylpropan-1-amine] | 11 | 25
CC(C)(C)NCCOc1ccc2ncc(-c3cc4ccccc4o3)n2n1 [Example 18, N-(2-{[3-(1-Benzofuran-2-yl)imidazo[1,2-b]pyridazin-6-yl]oxy}ethyl)-2-methylpropan-2-amine] | 24 | 37
Clc1ccc2oc(-c3cnc4ccc(OC[C@H]5CNCCO5)nn34)cc2c1 [Example 20, 3-(5-Chloro-1-benzofuran-2-yl)-6-[(2R)-morpholin-2-ylmethoxy]imidazo[1,2-b]pyridazine] | – | 41
CNC(C)COc1ccc2ncc(-c3cc4ccccc4o3)n2n1 (stereo not shown) [Example 24, 1-{[3-(1-Benzofuran-2-yl)imidazo[1,2-b]pyridazin-6-yl]oxy}-N-methylpropan-2-amine] | – | 55
Clc1ccc2oc(-c3cnc4ccc(OCC[C@@H]5CCCN5)nn34)cc2c1 [Example 25, 3-(5-Chloro-1-benzofuran-2-yl)-6-{2-[(2S)-pyrrolidin-2-yl]ethoxy}imidazo[1,2-b]pyridazine] | 39 | 91
CNCC(C)Oc1ccc2ncc(-c3cc4ccccc4o3)n2n1 (stereo not shown) [Example 26, 2-{[3-(1-Benzofuran-2-yl)imidazo[1,2-b]pyridazin-6-yl]oxy}-N-methylpropan-1-amine] | – | 93
CC(C)(C)CNCC(Oc1ccc2ncc(-c3cc4ccccc4o3)n2n1)c1ccccc1 (stereo not shown) [Example 30, N-(2-{[3-(1-Benzofuran-2-yl)imidazo[1,2-b]pyridazin-6-yl]oxy}-2-phenylethyl)-2,2-dimethylpropan-1-amine] | 227 | 239
c1ccc2oc(-c3cnc4ccc(O[C@@H]5CCNC5)nn34)cc2c1 [Example 31, 3-(1-Benzofuran-2-yl)-6-[(3R)-pyrrolidin-3-yloxy]imidazo[1,2-b]pyridazine] | 22 | 49
Fc1cccc2oc(-c3cnc4ccc(OC[C@H]5CNCCO5)nn34)cc12 [Example 33, 3-(4-Fluoro-1-benzofuran-2-yl)-6-[(2R)-morpholin-2-ylmethoxy]imidazo[1,2-b]-pyridazine] | 10 | 15

More lines, in order of falling IC50 (human full-length MKNK1 [2]), values ahead:

IC50 (human full-length MKNK1 [1]) [nM] | IC50 (human full-length MKNK1 [2]) [nM] | Compound
98 | 124 | CNCC(Oc1ccc2ncc(-c3cc4ccccc4o3)n2n1)c1ccccc1 (single isomer, unassigned; (-)) [Example 29, (-)-2-{[3-(1-Benzofuran-2-yl)imidazo[1,2-b]pyridazin-6-yl]oxy}-N-methyl-2-phenylethanamine]
36 | 75 | CC(C)NCC(Oc1ccc2ncc(-c3cc4ccccc4o3)n2n1)c1ccccc1 (stereo not shown) [Example 27, Formic acid-N-(2-{[3-(1-benzofuran-2-yl)imidazo[1,2-b]pyridazin-6-yl]oxy}-2-phenylethyl)propan-2-amine (1:1)]
8 | 36 | c1ccc2oc(-c3cnc4ccc(OCCNC5CC5)nn34)cc2c1 [Example 17, N-(2-{[3-(1-Benzofuran-2-yl)imidazo[1,2-b]pyridazin-6-yl]oxy}ethyl)cyclopropanamine]
12 | 30 | c1ccc2oc(-c3cnc4ccc(OCC[C@@H]5CCCN5)nn34)cc2c1 [Example 15, 3-(1-Benzofuran-2-yl)-6-{2-[(2S)-pyrrolidin-2-yl]ethoxy}imidazo[1,2-b]pyridazine]
– | 27 | c1ccc2oc(-c3cnc4ccc(OCC5CNC5)nn34)cc2c1 [Example 14, 6-(Azetidin-3-ylmethoxy)-3-(1-benzofuran-2-yl)imidazo[1,2-b]pyridazine]
7 | 20 | CC(C)NCCCOc1ccc2ncc(-c3cc4ccccc4o3)n2n1 [Example 9, 3-{[3-(1-Benzofuran-2-yl)imidazo[1,2-b]pyridazin-6-yl]oxy}-N-(propan-2-yl)propan-1-amine]
– | 11 | COc1cccc2oc(-c3cnc4ccc(OC[C@H]5CNCCO5)nn34)cc12 [Example 2, 3-(4-Methoxy-1-benzofuran-2-yl)-6-[(2R)-morpholin-2-ylmethoxy]imidazo[1,2-b]pyridazine]
